Earlier results as cited in patent publication US20220401509A1, “Composition For Improving Mental State, Production Method For Composition For Improving Mental State, And Use Of Fruit Of Eggplant For Improving Mental State” (SHINSHU UNIVERSITY, priority 2019, published 2022).

Legend:
[1] = tested on: spontaneously hypertensive rats (SHRs); details: purified, single oral dose to SHR
adult individuals = details: according to the "Foods with Function Claims" in Japan

Structure (SMILES): CC(O)C(=O)OCC[N+](C)(C)C.[I-] (centres unmarked) [lactoylcholine]
- antihypertensive effect [1]: had an antihypertensive effect

Structure (SMILES): O=C(/C=C/c1ccc(O)c(O)c1)O[C@@H]1C[C@](O)(C(=O)O)C[C@@H](O)[C@H]1O [CA, chlorogenic acid]
- effective dose for antihypertensive effect in adult individuals (adult individuals): 271 mg/day

Structure (SMILES): CCC(=O)OCC[N+](C)(C)C [propionylcholine]
- antihypertensive effect [1]: had an antihypertensive effect

Structure (SMILES): CCCC(=O)OCC[N+](C)(C)C [butyrylcholine]
- antihypertensive effect [1]: had an antihypertensive effect

Structure (SMILES): NCCCC(=O)O [GABA, γ-aminobutyric acid]
- effective dose for antihypertensive effect in adult individuals (adult individuals): 12.3 mg/day
